Experimental data published in patent publication US20260234115A1, “LIPID COMPOUNDS, COMPOSITIONS, AND USES THEREOF” (Liberate Bio, Inc., priority 2023, published 2026).
Marks after values point to notes of the source that are not given here.

Test system: mouse organs
Experiment: In vivo activity screening in mice: organ mean total flux (p/s) of luciferase activity after injection of F2 LNP pools (Table 6, FIG. 7A-7C)
Settings: luciferase mRNA
Protocol: Small rodent biodistribution studies were performed in mice (e.g., C57BL/6J, Balb-c, CD-1, etc.). For evaluating LNP biodistribution and tissue activity upon systemic administration, C57BL/6J mice received dose administration by single intravenous injection via tail vein with LNP formulations (individual or pooled) in PBS, at different dose (0.25-3 mg/kg) levels of firefly luciferase mRNA. At predetermined time points (4-6 hours post-injection), the animals were anesthetized via isoflurane and subjected to in-life imaging sessions for bioluminescence using an In Vivo Imaging System (IVIS). All animals were dosed with D-Luciferin at 15 mg/mL via subcutaneous (SC) injection at 0.2 mL/animal. Animals had their abdomen hair shaved using an animal trimmer. They were then placed so their shaved belly faced up toward the IVIS camera. Whole body imaging sessions were performed 10-15 minutes following D-Luciferin administration.
For in detail organ distribution and activity of LNP formulations, ex vivo imaging sessions were also performed. All animals received SC D-Luciferin and were then euthanized by isoflurane overdose, followed by cardiac perfusion with saline. Following perfusion, the organs were collected and subjected to IVIS imaging for luminescence within 10-15 minutes of D-Luciferin injection.
All IVIS images were processed with a computer software to identify the regions of interests for individual organs to detect the total flux (p/s) values as luminescence quantification. Then the total flux values were graphed to evaluate the in vivo activity in each collected organ.
Small rodent biodistribution studies were performed in mice according to the General Study Protocols in Example 3(a). LNPs incorporating lipid compounds were prepared in Formulation F2, with MC3 as lipid compound (Cayman Chemical) prepared using Formulation F2 for comparison. LNP pools (with firefly luciferase mRNA encapsulated) were injected into mice at varying doses, and organ mean total flux (p/s) results (measuring luciferase activity) were then collected according to Example 3(a).
LNPs comprising MC3 used as a control and for cross-mouse comparison. Dose is in mg/kg; LC is Lipid Compound according to Table 1.
Additional screening results for Compounds 7, 13, 14, 26, 33, 38, 39, 40, 48, 60, 61, 89, 103, and 109 in spleen, femur, and muscle are shown in FIG. 7A, FIG. 7B, and FIG. 7C, with MC3 as a used as a control for comparison.

## CCCCCCCC(C)OC(=O)CCCCCCC(=O)OCC(COC(=O)CCCCCCC(=O)OC(C)CCCCCCC)(COC(=O)CCCCCCC(=O)OC(C)CCCCCCC)COC(=O)CCC(CCCCCC)OC(=O)NCCN1CCCC1 (stereo not shown) [Compound 37, O1-[2,2-bis[[8-(1-methyloctoxy)-8-oxo-octanoyl]oxymethyl]-3-[4-(2-pyrrolidin-1-ylethylcarbamoyloxy)decanoyloxy]propyl]O8-(1-methyloctyl) octanedioate]
Mouse 11, dose 0.5 mg/kg
  Organ Mean Total Flux Femur: 2.2 p/s (×10^6)
  Organ Mean Total Flux Heart: 1.9 p/s (×10^6)
  Organ Mean Total Flux Kidney: 0.8 p/s (×10^6)
  Organ Mean Total Flux Liver: 1737 p/s (×10^6)
  Organ Mean Total Flux Lung: 10.5 p/s (×10^6)
  Organ Mean Total Flux Muscle: 5.2 p/s (×10^6)
  Organ Mean Total Flux Pancreas: 0.6 p/s (×10^6)
  Organ Mean Total Flux Spleen: 2.5 p/s (×10^6)

## CCCCCCC(CCCC)COC(=O)CCCCCC(=O)OCC(COC(=O)CCCCCC(=O)OCC(CCCC)CCCCCC)(COC(=O)CCCCCC(=O)OCC(CCCC)CCCCCC)COC(=O)CCC(CCCCCC)OC(=O)NCCN1CCCC1 (stereo not shown) [Compound 51, O7-[2,2-bis[[7-(2-butyloctoxy)-7-oxo-heptanoyl]oxymethyl]-3-[4-(2-pyrrolidin-1ylethylcarbamoyloxy)decanoyloxy]propyl]O1-(2-butyloctyl) heptanedioate]
Mouse 3, dose 1.0 mg/kg
  Organ Mean Total Flux Femur: 7.5 p/s (×10^6)
  Organ Mean Total Flux Heart: 16.0 p/s (×10^6)
  Organ Mean Total Flux Kidney: 7.2 p/s (×10^6)
  Organ Mean Total Flux Liver: 15467 p/s (×10^6)
  Organ Mean Total Flux Lung: 59.6 p/s (×10^6)
  Organ Mean Total Flux Muscle: 16.5 p/s (×10^6)
  Organ Mean Total Flux Pancreas: 4.9 p/s (×10^6)
  Organ Mean Total Flux Spleen: 9.7 p/s (×10^6)

## CCCCCCC(CCC(=O)OCC(COC(=O)CCCCCC(=O)OCCC(CCCCC)CCCCC)(COC(=O)CCCCCC(=O)OCCC(CCCCC)CCCCC)COC(=O)CCCCCC(=O)OCCC(CCCCC)CCCCC)OC(=O)NCCN1CCCC1 (stereo not shown) [Compound 52]
Mouse 3, dose 1.0 mg/kg
  Organ Mean Total Flux Femur: 6.0 p/s (×10^6)
  Organ Mean Total Flux Heart: 9.0 p/s (×10^6)
  Organ Mean Total Flux Kidney: 8.4 p/s (×10^6)
  Organ Mean Total Flux Liver: 12143 p/s (×10^6)
  Organ Mean Total Flux Lung: 56.0 p/s (×10^6)
  Organ Mean Total Flux Muscle: 15.1 p/s (×10^6)
  Organ Mean Total Flux Pancreas: 4.7 p/s (×10^6)
  Organ Mean Total Flux Spleen: 6.1 p/s (×10^6)

## CCCCC/C=C\CCOC(=O)CCCCCC(=O)OCC(COC(=O)CCCCCCOC(=O)C(CCCC)CCCCCC)(COC(=O)CCCCCCOC(=O)C(CCCC)CCCCCC)COC(=O)CCC(CCCCCC)OC(=O)NCCN1CCCC1 (stereo not shown) [Compound 17, O7-[2,2-bis[7-(2-butyloctanoyloxy)heptanoyloxymethyl]-3-[4-(2-pyrrolidin-1-ylethylcarbamoyloxy)decanoyloxy]propyl]O1-[(Z)-non-3-enyl]heptanedioate]
Mouse 2, dose 1.0 mg/kg
  Organ Mean Total Flux Femur: 8.0 p/s (×10^6)
  Organ Mean Total Flux Heart: 13.0 p/s (×10^6)
  Organ Mean Total Flux Kidney: 7.6 p/s (×10^6)
  Organ Mean Total Flux Liver: 11856 p/s (×10^6)
  Organ Mean Total Flux Lung: 59.3 p/s (×10^6)
  Organ Mean Total Flux Muscle: 30.7 p/s (×10^6)
  Organ Mean Total Flux Pancreas: 3.0 p/s (×10^6)
  Organ Mean Total Flux Spleen: 5.5 p/s (×10^6)

## CCCCC/C=C\CCOC(=O)CCCCC(=O)OCC(COC(=O)CCCCC(=O)OCC/C=C\CCCCC)(COC(=O)CCC(CCCCCC)OC(=O)NCCN1CCCC1)COC(=O)CCC(OCCCCCCCC)OCCCCCCCC (stereo not shown) [Compound 15, O6-[2-(4,4-dioctoxybutanoyloxymethyl)-2-[[6-[(Z)-non-3-enoxy]-6-oxo-hexanoyl]oxymethyl]-3-[4-(2-pyrrolidin-1-ylethylcarbamoyloxy)decanoyloxy]propyl]O1-[(Z)-non-3-enyl]hexanedioate]
Mouse 13, dose 0.5 mg/kg
  Organ Mean Total Flux Femur: 1.3 p/s (×10^6)
  Organ Mean Total Flux Heart: 1.4 p/s (×10^6)
  Organ Mean Total Flux Kidney: 0.4 p/s (×10^6)
  Organ Mean Total Flux Liver: 992.3 p/s (×10^6)
  Organ Mean Total Flux Lung: 3.7 p/s (×10^6)
  Organ Mean Total Flux Muscle: 1.1 p/s (×10^6)
  Organ Mean Total Flux Pancreas: 0.1 p/s (×10^6)
  Organ Mean Total Flux Spleen: 1.6 p/s (×10^6)

## CCCCCCCCCCOC(=O)CCCCCCC(=O)OCC(COC(=O)CCCCCCC(=O)OCCCCCCCCCC)(COC(=O)CCCCCCC(=O)OCCCCCCCCCC)COC(=O)CCC(CCCCCC)OC(=O)NCCN1CCCC1 (stereo not shown) [Compound 35, O8-[2,2-bis[(8-decoxy-8-oxo-octanoyl)oxymethyl]-3-[4-(2-pyrrolidin-1ylethylcarbamoyloxy)decanoyloxy]propyl]O1-decyloctanedioate]
Mouse 6, dose 0.5 mg/kg
  Organ Mean Total Flux Femur: 4.2 p/s (×10^6)
  Organ Mean Total Flux Heart: 1.3 p/s (×10^6)
  Organ Mean Total Flux Kidney: 1.3 p/s (×10^6)
  Organ Mean Total Flux Liver: 850.3 p/s (×10^6)
  Organ Mean Total Flux Lung: 11.0 p/s (×10^6)
  Organ Mean Total Flux Muscle: 15.5 p/s (×10^6)
  Organ Mean Total Flux Pancreas: 2.5 p/s (×10^6)
  Organ Mean Total Flux Spleen: 5.4 p/s (×10^6)

## CCCCC/C=C\CCCOC(=O)CCCCCCC(=O)OCC(COC(=O)CCCCCCC(=O)OCCC/C=C\CCCCC)(COC(=O)CCCCCCC(=O)OCCC/C=C\CCCCC)COC(=O)CCC(CCCCCC)OC(=O)NCCN1CCCC1 (stereo not shown) [Compound 46, 8,8′-di((Z)-dec-4-en-1-yl) O′1,O1-(2-(((8-(((Z)-dec-4-en-1-yl)oxy)-8-oxooctanoyl)oxy)methyl)-2-(((4-(((2-(pyrrolidin-1-yl)ethyl)carbamoyl)oxy)decanoyl)oxy)methyl)propane-1,3-diyl) di(octanedioate)]
Mouse 11, dose 0.5 mg/kg
  Organ Mean Total Flux Femur: 1.8 p/s (×10^6)
  Organ Mean Total Flux Heart: 4.1 p/s (×10^6)
  Organ Mean Total Flux Kidney: 2.1 p/s (×10^6)
  Organ Mean Total Flux Liver: 3107 p/s (×10^6)
  Organ Mean Total Flux Lung: 17.8 p/s (×10^6)
  Organ Mean Total Flux Muscle: 4.2 p/s (×10^6)
  Organ Mean Total Flux Pancreas: 0.9 p/s (×10^6)
  Organ Mean Total Flux Spleen: 1.8 p/s (×10^6)

## CCCCC/C=C\CCOC(=O)CCCCC(=O)OCC(COC(=O)CCCCC(=O)OCC/C=C\CCCCC)(COC(=O)CCC(CCCCCC)OC(=O)NCCN1CCCC1)COC(=O)C1(C2CCCCC2)CCCCC1 (stereo not shown) [Compound 96, O6-[2-[(1-cyclohexylcyclohexanecarbonyl)oxymethyl]-2-[[6-[(Z)-non-3-enoxy]-6-oxo-hexanoyl]oxymethyl]-3-[4-(2-pyrrolidin-1-ylethylcarbamoyl-oxy)decanoyloxy]propyl]O1-[(Z)-non-3-enyl]hexanedioate]
Mouse 12, dose 0.5 mg/kg
  Organ Mean Total Flux Femur: 3.4 p/s (×10^6)
  Organ Mean Total Flux Heart: 0.4 p/s (×10^6)
  Organ Mean Total Flux Kidney: 0.9 p/s (×10^6)
  Organ Mean Total Flux Liver: 213.0 p/s (×10^6)
  Organ Mean Total Flux Lung: 9.0 p/s (×10^6)
  Organ Mean Total Flux Muscle: 11.9 p/s (×10^6)
  Organ Mean Total Flux Pancreas: 0.9 p/s (×10^6)
  Organ Mean Total Flux Spleen: 6.6 p/s (×10^6)

## CCCCCCCCCOC(=O)CCCCC(=O)OCC(COC(=O)CCCCC(=O)OCCCCCCCCC)(COC(=O)CCCCC(=O)OCCCCCCCCC)COC(=O)CCC(CCCCCC)OC(=O)NCCN1CCCC1 (stereo not shown) [Compound 50, O6-[2,2-bis[(6-nonoxy-6-oxo-hexanoyl)oxymethyl]-3-[4-(2-pyrrolidin-1-ylethylcarbamoyloxy)decanoyloxy]propyl]O1-nonyl hexanedioate]
Mouse 3, dose 1.0 mg/kg
  Organ Mean Total Flux Femur: 3.8 p/s (×10^6)
  Organ Mean Total Flux Heart: 3.1 p/s (×10^6)
  Organ Mean Total Flux Kidney: 2.1 p/s (×10^6)
  Organ Mean Total Flux Liver: 2413 p/s (×10^6)
  Organ Mean Total Flux Lung: 12.1 p/s (×10^6)
  Organ Mean Total Flux Muscle: 3.8 p/s (×10^6)
  Organ Mean Total Flux Pancreas: 8.8 p/s (×10^6)
  Organ Mean Total Flux Spleen: 9.0 p/s (×10^6)
Mouse 13, dose 0.5 mg/kg
  Organ Mean Total Flux Femur: 1.2 p/s (×10^6)
  Organ Mean Total Flux Heart: 1.0 p/s (×10^6)
  Organ Mean Total Flux Kidney: 0.7 p/s (×10^6)
  Organ Mean Total Flux Liver: 569.7 p/s (×10^6)
  Organ Mean Total Flux Lung: 4.7 p/s (×10^6)
  Organ Mean Total Flux Muscle: 2.3 p/s (×10^6)
  Organ Mean Total Flux Pancreas: 1.5 p/s (×10^6)
  Organ Mean Total Flux Spleen: 4.7 p/s (×10^6)

## CCCCCCCCCCOC(=O)CCCCCC(=O)OCC(COC(=O)CCCCCC(=O)OCCCCCCCCCC)(COC(=O)CCCCCC(=O)OCCCCCCCCCC)COC(=O)CCC(CCCCCC)OC(=O)NCCN1CCCC1 (stereo not shown) [Compound 36, O7-[2,2-bis[(7-decoxy-7-oxo-heptanoyl)oxymethyl]-3-[4-(2-pyrrolidin-1-ylethylcarbamoyloxy)decanoyloxy]propyl]O1-decyl heptanedioate]
Mouse 6, dose 0.5 mg/kg
  Organ Mean Total Flux Femur: 3.6 p/s (×10^6)
  Organ Mean Total Flux Heart: 3.7 p/s (×10^6)
  Organ Mean Total Flux Kidney: 2.7 p/s (×10^6)
  Organ Mean Total Flux Liver: 2330 p/s (×10^6)
  Organ Mean Total Flux Lung: 16.5 p/s (×10^6)
  Organ Mean Total Flux Muscle: 6.0 p/s (×10^6)
  Organ Mean Total Flux Pancreas: 1.2 p/s (×10^6)
  Organ Mean Total Flux Spleen: 6.1 p/s (×10^6)
